Test [1] deals with T1, PPARγ (peroxisome proliferator-activated receptor subtype-γ) (Homo sapiens, UniProt P37231).
T1 construct: gene PPARG
T1 sequence (P37231 1-505): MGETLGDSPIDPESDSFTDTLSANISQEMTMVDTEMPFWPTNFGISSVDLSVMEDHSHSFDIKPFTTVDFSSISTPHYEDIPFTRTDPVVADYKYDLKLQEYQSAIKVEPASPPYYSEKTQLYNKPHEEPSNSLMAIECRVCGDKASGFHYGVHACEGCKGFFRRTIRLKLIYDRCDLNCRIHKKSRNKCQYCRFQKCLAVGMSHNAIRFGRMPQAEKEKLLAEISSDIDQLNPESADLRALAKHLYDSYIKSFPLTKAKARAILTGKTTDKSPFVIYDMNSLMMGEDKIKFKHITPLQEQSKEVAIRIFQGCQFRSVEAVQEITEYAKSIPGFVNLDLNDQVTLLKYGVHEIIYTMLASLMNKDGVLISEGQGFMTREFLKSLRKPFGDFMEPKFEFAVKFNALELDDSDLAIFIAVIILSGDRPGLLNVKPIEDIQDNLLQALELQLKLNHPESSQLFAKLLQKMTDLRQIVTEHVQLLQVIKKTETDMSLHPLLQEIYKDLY
Kind of test: in vitro binding assay (Cerep, agonist, ref. […]), Ki from IC50 by Cheng-Prusoff.

For test [2], the target named is T1, PPARγ (peroxisome proliferator-activated receptor subtype-γ). Kind of test: biochemical. On the set-up: Cerep in vitro receptor binding assay (agonist ligand), per cent inhibition at 50 uM and Ki by Cheng-Prusoff. The note with it: read-out: % inhibition. The procedure: (§1) In vitro binding assays were performed by the company Cerep for α-2 adrenergic receptor (agonist, ref. 3443), estrogen receptor-α(ERα, agonist, ref. 0484) and PPARγ (agonist, ref. 0641). Similarly, Cerep carried out the cellular assays of 2C-1 adrenergic receptor (α1B, agonist effect, ref. 1901) and ERα (antagonistic effect, ref. 3495). […] The effect of chemicals were initially evaluated at 50 μM, and Ki values were further determined for chemicals with more than 40% activity in initial assessment. As explained above, R package ‘drc’ ([Ritz and Streibig, 2005]) was utilized to calculate IC50 values using a two-parametric log-logistic function with 0% as minimum and 100% as maximum. Ki values were generated from the IC50 values using Cheng–Prusoff equation.

A further test addresses T2, ADRA1B (Homo sapiens, UniProt P35368).
T2 sequence (P35368 1-520): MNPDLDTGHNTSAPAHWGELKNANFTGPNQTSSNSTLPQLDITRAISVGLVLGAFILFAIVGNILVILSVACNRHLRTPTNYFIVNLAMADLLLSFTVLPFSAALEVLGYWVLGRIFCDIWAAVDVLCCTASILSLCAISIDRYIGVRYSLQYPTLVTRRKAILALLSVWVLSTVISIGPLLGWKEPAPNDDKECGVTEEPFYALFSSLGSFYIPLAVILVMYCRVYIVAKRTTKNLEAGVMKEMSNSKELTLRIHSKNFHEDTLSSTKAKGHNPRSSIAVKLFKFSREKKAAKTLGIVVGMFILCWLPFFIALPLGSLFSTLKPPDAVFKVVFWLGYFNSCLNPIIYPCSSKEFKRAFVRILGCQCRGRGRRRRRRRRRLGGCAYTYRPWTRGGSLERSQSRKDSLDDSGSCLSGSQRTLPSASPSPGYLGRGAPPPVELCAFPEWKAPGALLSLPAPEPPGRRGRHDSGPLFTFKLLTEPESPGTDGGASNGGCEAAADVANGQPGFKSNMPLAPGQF
Description: cell-based. On the set-up: Cerep cellular alpha1B adrenergic receptor agonist effect assay (ref. 1901). The note with it: read-out: Agonist. The protocol:
as §1

The target of test [3] is T3, ADRA2C (α-2 adrenergic receptor) (Homo sapiens, UniProt P18825).
T3 sequence (P18825 1-462): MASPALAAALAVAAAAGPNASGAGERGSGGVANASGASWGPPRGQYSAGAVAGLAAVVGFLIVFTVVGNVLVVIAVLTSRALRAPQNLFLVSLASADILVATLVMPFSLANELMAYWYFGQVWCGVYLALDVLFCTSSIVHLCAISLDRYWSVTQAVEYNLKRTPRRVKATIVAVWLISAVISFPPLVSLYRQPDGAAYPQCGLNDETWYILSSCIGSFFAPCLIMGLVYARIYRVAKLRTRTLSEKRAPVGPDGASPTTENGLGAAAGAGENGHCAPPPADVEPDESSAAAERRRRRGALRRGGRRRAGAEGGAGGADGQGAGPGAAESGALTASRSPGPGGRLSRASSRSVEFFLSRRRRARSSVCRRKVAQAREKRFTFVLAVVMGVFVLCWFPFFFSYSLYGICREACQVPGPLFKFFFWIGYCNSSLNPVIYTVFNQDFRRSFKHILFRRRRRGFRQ
Description: biochemical. Further details: Cerep in vitro receptor binding assay (agonist ligand), per cent inhibition at 50 uM and Ki by Cheng-Prusoff. The note with it: read-out: % inhibition. The protocol: as §1

The subject of a further test is HL60. Kind of test: cells. Further details: Cell viability, Alamar Blue fluorescence. The note with it: Homo sapiens, HL-60, 72 h. The protocol: (§2) HL60 (CPQ-054) was cultured as suspension cells in RPMI-1640 containing 10% FCS and penicillin/streptomycin. MCF7 (CPQ-072) cells were cultured as adherent cells in DMEM containing 10% FCS and penicillin/streptomycin. Cells were cultured at 37 °C in an atmosphere of 5% (HL60) or 10% (MCF7) CO2. For the assays, cells (5000 cells/well) were seeded in 150 μl medium on a 96-well cell culture plate and incubated overnight at 37 °C. The next day, cells were treated with different concentrations of selected chemicals from CMap. After 72 h, the viability of treated cells was measured after incubation for 4 h with the indicator dye Alamar Blue and fluorescence measurement at 590 nm. The single concentration of mephentermine (50 μM) was tested in quadruplicates. The IC50 curves for the predicted compounds (sulconazole, vinburnine) and their corresponding negative controls (butoconazole, moxisylyte hydrochloride) were prepared in eight semilog dilutions starting at 1E-5M and tested in duplicates. The reference compound staurosporine was prepared in eight decalog dilutions starting at 1E-5M. Standard solvent controls were performed using 0.1% DMSO. Treatment of cells with 0.1% DMSO and 1E-5M staurosporine served as high control (100% viability) and low control (0% viability), respectively. Raw data were converted into percent viability relative to high controls (solvent 0.1% DMSO) and low controls (1E-05M staurosporine), which were set to 100 and 0%, respectively. IC50 values were calculated using R package ‘drc’ ([Ritz and Streibig, 2005]) by fitting dose response data to a two-parametric log-logistic function with 0% growth as bottom constraint and 100% growth as top constraint. For cell cycle analysis, HL60 cells (ATCC CCL-240) were grown for 6 h with an initial concentration of 0.4 Mio/ml in 3 ml of medium before sulconazole (25 μM) and vinburnine (25 μM) (nocodazole, 200ng/ml as reference) were added. For three time points (24, 48 and 72 h), (un)treated cells were collected, fixed in 80% methanol for 24 h and further rehydrated in PBS/1%FCS at room temperature for 30 min before RNAse A (100 μg/ml) and PI (50 μg/ml) treatment. FACS (FACSCalibur, BD Biosciences) was empl

A further test has as its system MCF7. Kind of test: cells. Further details: Cell viability, Alamar Blue fluorescence. The note with it: Homo sapiens, MCF7, 72 h. The protocol:
as §2

The target of test [4] is T4, estrogen receptor-α (ERα) (Homo sapiens, UniProt P03372).
T4 construct: gene ESR1
T4 sequence (P03372 1-595): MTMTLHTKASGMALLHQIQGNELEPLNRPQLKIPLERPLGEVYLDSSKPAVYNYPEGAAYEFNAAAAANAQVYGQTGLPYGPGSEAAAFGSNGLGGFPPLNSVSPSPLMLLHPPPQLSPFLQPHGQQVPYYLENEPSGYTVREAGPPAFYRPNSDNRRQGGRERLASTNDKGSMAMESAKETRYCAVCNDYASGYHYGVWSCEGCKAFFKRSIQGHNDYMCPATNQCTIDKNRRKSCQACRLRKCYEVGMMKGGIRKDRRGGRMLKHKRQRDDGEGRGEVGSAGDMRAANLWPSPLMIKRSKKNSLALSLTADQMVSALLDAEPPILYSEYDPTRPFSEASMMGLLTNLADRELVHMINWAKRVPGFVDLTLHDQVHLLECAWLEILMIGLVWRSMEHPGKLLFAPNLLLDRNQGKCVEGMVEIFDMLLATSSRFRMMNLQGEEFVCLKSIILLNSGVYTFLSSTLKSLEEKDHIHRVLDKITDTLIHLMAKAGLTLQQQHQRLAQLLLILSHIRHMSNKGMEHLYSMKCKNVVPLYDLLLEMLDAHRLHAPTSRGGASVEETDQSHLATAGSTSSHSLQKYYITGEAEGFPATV
Description: cell-based. Further details: Cerep cellular ER alpha antagonist effect assay (ref. 3495). The note with it: read-out: Antag./Inhibitor. The procedure: as §1

Test [5] addresses T5, estrogen receptor-α (ERα) (Homo sapiens, UniProt P03372).
T5 construct: gene ESR1
Kind of test: in vitro binding assay (Cerep, agonist, ref. […]), Ki from IC50 by Cheng-Prusoff; authors call it ambiguous.

Test [6] has as its target T4, estrogen receptor-α (ERα). Kind of test: biochemical. Further details: Cerep in vitro receptor binding assay (agonist ligand), per cent inhibition at 50 uM and Ki by Cheng-Prusoff. The note with it: read-out: % inhibition.

As for `CCCOc1ccccc1-c1nc2nn[nH]c2c(=O)[nH]1` [zaprinast], affinity in test [1] was put at a Ki of 14 µM. Also, the inhibition at 50 µM in [2] was 57%.
Consider `CCCCC(CC)CN1CN(CC(CC)CCCC)CC(C)(N)C1` (stereo not shown) [hexetidine], for which the activity at 50 µM at ADRA1B was < 20%. Besides, the inhibition at 50 µM in [3] came to 59%.
As for `CC(=O)Oc1cc(C(C)C)c(OCCN(C)C)cc1C` [Moxisylyte], the 50% inhibitory concentration (IC50) with HL60 and in the test with MCF7 was > 50 µM each time.
Consider `C=CC(N)CCC(=O)O` (stereo not shown) [Vigabatrin], for which the activity at 50 µM at ADRA1B is < 20%. Further, in test [3], the inhibition at 50 µM is < 20%.
As to `COC(=O)C1=CO[C@@H](C)[C@H]2CN3CCc4c([nH]c5ccccc45)[C@@H]3C[C@H]12` [Raubasine], in [2], the inhibition at 50 µM was < 20%.
Take `COc1cc(C(=O)OCCCN2CCCN(CCCOC(=O)c3cc(OC)c(OC)c(OC)c3)CC2)cc(OC)c1OC` [Dilazep]: in [4], the inhibition at 50 µM turned out to be 26.3%.
On to `COc1cc([C@@H]2c3cc4c(cc3[C@H](O)[C@H]3COC(=O)[C@H]23)OCO4)cc(OC)c1OC` [Podophyllotoxin], for which the activity at 50 µM at ADRA1B was < 20%. Also, the inhibition at 50 µM in [3] is < 20%.
As to `CCOC(=O)C1=C(C)NC(C)=C(C(=O)OC)C1c1cccc([N+](=O)[O-])c1` (stereo not shown) [nitrendipine], the inhibitory constant (Ki) in test [5] is ~46 µM. The inhibition at 50 µM in test [6] was 49%.
In the case of `Clc1ccc(CCC(Cn2ccnc2)Sc2c(Cl)cccc2Cl)cc1` (stereo not shown) [Butoconazole], the figures for the half-inhibitory concentration (IC50) in the test on HL60 and in the test with MCF7 were 3.9 µM and 23 µM, respectively.

For orientation: Ki means a dissociation constant, usually derived from enzyme kinetics or from competition with a known ligand. A high value points to weaker binding. One may read the IC50 as the point on the concentration scale where inhibition reaches its midpoint. High values mean weaker potency, low ones greater potency.
